{"source": "patent US12163169B2", "about": "“Inducible chimeric cytokine receptors” (Allogene Therapeutics, Inc., priority 2018, dated 2024)", "molecules": {"B1": {"name": "CD8 SS-Myc-FKBP(F36V)-EpoR(237-338; L241G, L242P)-IFNAR2(310-515): inducible chimeric cytokine receptor (protein)", "chain": "KKKVWDYNYDDESDSDTEAAPRTSGGGYTMHGLTVRPLGQASATSTESQLIDPESEEEPDLPEVDVELPTMPKDSPQQLELLSGPCERRKSPLQDPFPEEDYSSTEGSGGRITFNVDLNSVFLRVLDDEDSDDLEAPLMLSSHLEEMVDPEDPDNVQSNHLLASGEGTQPTFPSPSSEGLWSEDAPSDQSDTSESDVDLGDGYIMR"}}, "key": {"[1]": {"tested_on": "BCMA(1-54), TACI(1-165) and BAFFR(1-78) ectodomain chimeric cytokine receptors", "assay": "HEK293T Stat reporter assay of TNFR2 superfamily ectodomain receptors with soluble BAFF trimers (Example 14)", "type": "cell-based", "conditions": "5 hours post-treatment", "from_the_text": "To test if the panel of ligand inducers and ectodomains can be further extended beyond the AP1903-FKBP(F36V) pairing, we tested signaling in response to other multimeric ligand inducers. As the Tumor Necrosis Family (TNF) superfamily of ligands are trimers, they engage their respective receptors in a multimeric fashion. Therefore, we fused ectodomains derived from the TNFR2 superfamily receptors, such as BCMA(1-54), TACI(1-165) and BAFFR(1-78), to the transmembrane and signaling domains of our chimeric cytokine receptors, and tested signaling in response to soluble trimeric ligand. Briefly, 20,000 HEK293T cells were plated into each well of a poly-L-lysine-coated 96-well flat-bottom plate and allowed to adhere overnight. The chimeric cytokine receptor (2.5 ng), a Stat response element that drives Firefly Luciferase (100 ng; Promega) and Renilla Luciferase control reporter vector (1 ng; Promega) were mixed in a final volume of 5 uL in Opti-MEM (Gibco) (“DNA mix”). 0.3 uL Lipofectamine 2000 (Invitrogen) in 5 uL Opti-MEM was incubated at room temperature for 5 minutes and then added to the DNA mix. […] 24 hours after transfection, cells were either left untreated, or treated with soluble BAFF or APRIL trimers diluted in serum-free media, and Stat reporter activity was determined 5 hours post-treatment using the Dual-Glo Luciferase Assay System (Promega). […]"}, "[2]": {"tested_on": "CAR-T cells", "assay": "Live cell count and viability of EGFRvIII CAR-T cells grown with IL2, AP1903 or no treatment (Example 7)", "type": "cell-based, human", "conditions": "for CAR-T cell growth with AP1903 (live cell count) / CAR-T cell viability with AP1903: EGFRvIII CAR-T cells; for CAR-T cell growth with AP1903 (live cell count): 8 days post production, FIG. 16; for CAR-T cell viability with AP1903: FIG. 17", "from_the_text": "(§1) In this study, lentiviral (pLVX) constructs were generated comprising an SFFV promoter followed by a kozak sequence, the inducible chimeric cytokine receptor, a T2A sequence, and a chimeric antigen receptor. The chimeric antigen receptor was directed towards cells expressing EGFRvIII. For comparison, lentiviral constructs with either TagBFP or GoCART instead of the inducible chimeric cytokine receptor were used. GoCART consists of a myristoylation sequence followed by a portion of MyD88 and CD40 fused to two repeats of FKBP(F36V).\n(§2) The T cells were transduced with lentivirus 2 days after isolation, and 3 days later were FACS sorted by binding APC-labeled EGFRvIII. The sorted EGFRvIII+ cells were cultured until 14 days post isolation.\nAt day 14, the 0.5e6 cells were resuspended in a 24-well plate, and grown with either IL2, AP1903, or no treatment for 8 days post production."}, "[3]": {"tested_on": "CAR-T cells", "assay": "Cytokine measurement of CAR-T cells on day 2 and day 8 (Example 7)", "type": "cell-based, human", "conditions": "for cytokine release without any treatment: day 2 and 8 post production, FIG. 23, FIG. 24; for autoactivation (cytokine release in the absence of small molecule): no treatment", "from_the_text": "as §1, §2\nCytokines were measured on day 2 and day 8. AP1903 data is shown FIG. 20 and FIG. 21. All values were normalized to untreated TagBFP-expressing CAR-T Cells. […] The IFN-related tails do incur some cytokine release.\nInduction of cytokines at day 2 and 8 post production without any treatment was measured."}, "[4]": {"tested_on": "STAT5", "assay": "STAT5 signaling by IL7Ra, IL2Rb and IFNAR2 derived cytotail fragments (Example 6, FIG. 11)", "type": "cell-based", "conditions": "EpoR(237-338; L241G, L242P) tyrosine kinase activating domain, short (8 h) AP1903 treatment", "protocol": "In this study, IL2Rb, IL7R, and […] cytotails were analyzed to identify tyrosines sufficient for key aspects of signaling. For instance, a segment of IL2Rb containing the STAT5-interacting tyrosines Y418 and Y436 might retain STAT5 signaling, but may lose PI3K signaling as this requires Y364 of the IL2Rb cytotail. Inducible chimeric cytokine receptors comprising the IL7R, IL2Rb, and IFNAR2 tails may include one or more tyrosine motifs within the cytotails. Elimination of one or more portions of the tail (e.g., the IL12Rb2 tail) in some cases results in removal of negative regulatory motifs and stronger signaling.\nIn this study, signaling by a variety of IL7Ra and IL2Rb derived fragments using the EpoR-based tyrosine kinase activating domain were tested. The following inducible chimeric cytokine receptors were tested in this study:\nConstructs that are plotted include tyrosine effector domains derived from the IL7R and IL2Rb cytotails."}, "[5]": {"tested_on": "STAT4", "assay": "STAT4 luciferase reporter assay comparing tyrosine kinase activating domains in HEK293 cells co-transfected with STAT4 (Example 5A)", "type": "cell-based", "conditions": "for basal signaling: without ligand", "from_the_text": "For this study, several tyrosine kinase activating domains were compared using a otherwise identical inducible cytokine receptor design. The tyrosine effector domain consists of a STAT5-activating sequence from IL7R fused to a STAT4-activating sequence from IL12Rb2. Each construct contains a membrane-targeting motif (CD8 SS), a dimerization domain (FKBP(F36V)), a tyrosine kinase activating domain derived from either the EpoR, GP130, PrIR, GHR, GCSFR, or TPOR/MPLR receptors, and a tyrosine effector domain consisting of the IL7R(316-459) cytotail fused to the IL12Rb2(775-825) peptide. Chimeric cytokine receptors also include an epitope tag for detection (Myc). The following inducible chimeric cytokine receptors were tested in this study:\nHEK293 cells were transfected with constructs encoding the above inducible chimeric cytokine receptors, and a luciferase reporter for either STAT4 or STAT5. The luciferase reporters (Promega) encoded a luciferase under the control of either a STAT4 or STAT5 responsive element. As HEK293 cells lack STAT4, in wells transfected with the STAT4 reporter, a plasmid encoding constitutively-expressed STAT4 was transfected as well added. Transfected EpoR, GHR, and IL12Rb1+IL12Rb2 (the IL12 receptor) were used as positive controls. The ligand added to inducible chimeric cytokine receptors was AP1903. Epo was added to EpoR transfected cells, Growth Hormone to GHR transfected cells, and IL-12 to IL12 receptor transfected cells"}, "[6]": {"tested_on": "CAR-T cells", "assay": "Phenotyping of CAR-T cells at day 8 post production (Example 7)", "type": "cell-based, human", "conditions": "for cell phenotype after growth with AP1903: FIG. 18, FIG. 19", "from_the_text": "as §1, §2\nAt day 8 post production growth with AP1903 or IL2, cells were phenotyped."}, "[7]": {"tested_on": "STAT5", "assay": "STAT5 luciferase reporter assay of small-molecule inducible Epo receptors in HEK293T cells (Example 2)", "type": "cell-based", "conditions": "AP1903 added vs no ligand, FIG. 4", "from_the_text": "According to the construct name, receptors contain a membrane-targeting motif (CD8 signal sequence (CD8 SS) or myristoyl), a dimerization domain (FKBP(F36V) or mutants thereof), a portion of the EpoR that contains a transmembrane (EpoR(237-272)), a JAK2 binding motif (EpoR(273-338)), and/or a tyrosine effector domain (EpoR(339-508)). Constructs may also include epitope tags (Myc or V5) for western blot or flow analyses.\nVectors encoding the inducible chimeric cytokine receptors were transfected into HEK293T cells along with a luciferase reporter for the STAT5 transcription factor (Promega E4651). The reporter vector consists of a firefly luficerase expressed under the control of a STAT5 responsive DNA element. Upon addition of erythropoietin (Epo), the erythropoietin receptor (EpoR) activates the JAK2 kinase which then phosphorylates tyrosines on the EpoR cytotail to generate binding sites for STAT5. […] Epo was added to samples with cells transfected with EpoR, and AP1903 was added to the samples with cells transfected with fusions of the EpoR to FKBP. No Epo or AP1903 was added to samples to assess baseline signaling. In FIG. 4, “ligand” is either Epo or AP1903."}}, "note": "Entries after “also recorded” stand apart in the source; their conditions may differ."}
{"molecule": "BAFF: soluble BAFF trimers, TNF superfamily ligand", "values": [{"measurement": "Stat5 reporter activity", "setting": "[1]; FIG. 37C", "result": "induced Stat5 and Stat4 activation"}, {"measurement": "Stat4 reporter activity", "setting": "[1]; FIG. 37D", "result": "induced Stat5 and Stat4 activation"}]}
{"molecule": "CD8 SS-Myc-FKBP(F36V)-EpoR(237-338; L241G, L242P)-IL2Rb(333-551): inducible chimeric cytokine receptor", "values": [{"measurement": "CAR-T cell growth with AP1903 (live cell count)", "setting": "[2]", "result": "slight growth"}, {"measurement": "cytokine release without any treatment", "setting": "[3]", "result": "release IL13 and some TNFa (day 2, FIG. 23) that diminishes by day 8"}, {"measurement": "autoactivation (cytokine release in the absence of small molecule)", "setting": "[3]; day 2 and day 8", "result": "mildly autoactivating"}]}
{"molecule": "CD8 SS-Myc-FKBP(F36V)-EpoR(237-338; L241G, L242P)-IL2Rb(393-433, 518-551): inducible chimeric cytokine receptor", "values": [{"measurement": "STAT5 signaling of cytotail fragments", "setting": "[4]", "result": "far greater signaling"}]}
{"molecule": "CD8 SS-Myc-FKBP(F36V)-EpoR(237-338; L241G, L242P)-IL7R(316-459)-IL12Rb2(775-825): inducible chimeric cytokine receptor", "values": [{"measurement": "basal signaling", "setting": "[5]; FIG. 9", "result": "lowest basal signaling"}]}
{"molecule": "CD8 SS-Myc-FKBP(F36V)-EpoR(237-338; L241G, L242P)-IL7R(316-459): inducible chimeric cytokine receptor", "values": [{"measurement": "CAR-T cell growth with AP1903 (live cell count)", "setting": "[2]", "result": "robust growth"}, {"measurement": "CAR-T cell viability with AP1903", "setting": "[2]", "result": "higher viability with AP1903 comparable to IL2 treatment"}, {"measurement": "cell phenotype after growth with AP1903", "setting": "[6]", "result": "more stem cell memory"}, {"measurement": "cytokine release without any treatment", "setting": "[3]", "result": "No cytokine release was observed"}]}
{"molecule": "CD8 SS-Myc-FKBP(F36V)-EpoR(237-338; L241G, L242P)-IL7R(376-416, 424-459; Y456F): inducible chimeric cytokine receptor", "values": [{"measurement": "STAT5 signaling of cytotail fragments", "setting": "[4]", "result": "fully recreated"}]}
{"molecule": "CD8 SS-Myc-FKBP(F36V)-EpoR(237-338; L241G, L242P)-IL12Rb2(775-825): inducible chimeric cytokine receptor", "values": [{"measurement": "STAT4 signaling when used as a tyrosine effector domain", "setting": "[5]; peptide containing Y800, see Examples 3 and 5", "result": "sufficient to provide STAT4 signaling"}]}
{"molecule": "CD8 SS-Myc-FKBP(F36V)-EpoR(237-508; L241G, L242P)-V5: inducible chimeric cytokine receptor", "values": [{"measurement": "STAT5 reporter signaling with ligand", "setting": "[7]", "result": "closest to the EpoR(1-508) positive control; also recorded: robust activity"}]}
{"molecule": "CD8 SS-Myc-FKBP(F36V)-GCSFR(614-710)-IL7R(316-459)-IL12Rb2(775-825): inducible chimeric cytokine receptor", "values": [{"measurement": "signaling for STAT4", "setting": "[5]; AP1903, FIG. 9", "result": "strongest signaling for STAT4"}, {"measurement": "basal signaling", "setting": "[5]; FIG. 9", "result": "had basal signaling"}]}
{"molecule": "GoCART: myristoylation sequence followed by a portion of MyD88 and CD40 fused to two repeats of FKBP(F36V); previously reported multimerizer [reference compound]", "values": [{"measurement": "CAR-T cell growth with AP1903 (live cell count)", "setting": "[2]", "result": "slight growth"}, {"measurement": "CAR-T cell viability with AP1903", "setting": "[2]", "result": "higher viability with AP1903 comparable to IL2 treatment"}, {"measurement": "cell phenotype after growth with AP1903", "setting": "[6]", "result": "less stem cell memory and more effector memory"}, {"measurement": "cell phenotype when grown further with IL2", "setting": "[6]; IL2", "result": "somewhat more differentiated"}, {"measurement": "cytokine release without any treatment", "setting": "[3]", "result": "GM-CSF, IL5, IL13, IL22, and MIP1a at day 2 and more so at day 8"}, {"measurement": "cytokine release with AP1903", "setting": "[3]; day 2 and day 8, normalized to untreated TagBFP-expressing CAR-T Cells, FIG. 20, FIG. 21", "result": "robust cytokine release"}, {"measurement": "autoactivation (cytokine release in the absence of small molecule)", "setting": "[3]; day 2 and day 8", "result": "strongly so"}]}
{"molecule": "B1", "values": [{"measurement": "CAR-T cell counts on post-production day 5 and day 8", "setting": "[2]; FIG. 25", "result": "least growth"}, {"measurement": "growth without signaling", "setting": "[2]; no treatment, over a week, FIG. 22", "result": "some less growth"}, {"measurement": "IL-2 consumption", "setting": "[3]; Day 8 cytokine measurements", "result": "did not consume as much IL-2"}, {"measurement": "cytokine release without any treatment", "setting": "[3]", "result": "constitutively release small amounts of IL5"}, {"measurement": "autoactivation (cytokine release in the absence of small molecule)", "setting": "[3]; day 2 and day 8", "result": "mildly autoactivating"}]}
